The subject of experiment [1] is Northern house mosquitoes (Culex pipiens). The experiment can be described thus: Short-term spatial repellency, static air repellency chamber. It counts as in vivo. The conditions noted are these: for pest or weed control at 0.5 %: Culex pipiens. On the procedure: (§1) Northern house mosquitoes (Culex pipiens), a primary carrier of West Nile virus in eastern North America, were obtained from an established colony in the Medical Entomology Laboratory in the Department of Entomology at Iowa State University of Science and Technology, Ames Iowa. Mosquito rearing was performed by established protocols that are maintained by the Medical Entomology Laboratory. Repellency bioassays were performed with adult female mosquitoes that emerged 5-7 days previously. […] Mosquitoes, prior to testing, were held at 27° C., 80% relative humidity, and on a 16:8 hr light:dark photoperiod.
Repellency bioassays were performed using a static air repellency chamber, which has been described in various publications by the Pesticide Toxicology Laboratory at Iowa State University of Science and Technology, Ames, Iowa Briefly, a 9-cm×60-cm glass tube was used to monitor the distribution of mosquitoes at 15 min, 30 min, 60 min, 90 min, 120 min, and 150 min after introducing mosquitoes into the static air repellency chamber. […] One end of the spatial chamber contained a treated filter paper, whereas the other (untreated) end of the spatial chamber was not treated with compound. Controls contained filter papers treated with acetone, the solvent used to make the 0.5% solutions. Each end of the repellency chamber was secured with a 100-mm Petri dish using celluloid tape. After securing the petri dishes with corresponding treated or untreated filter papers to the spatial chamber, mosquitoes were anesthetized with carbon dioxide, and approximately 20 female mosquitoes were placed into each repellency chamber for one replicate. The opening of the spatial repellency chamber was secured with celluloid tape to prevent their escape. Chambers were oriented in opposite directions from the previous replicate to account for any directional effect. Four replicates were performed for data analysis for both the control and treatment groups.
Data for spatial repellency, the percentage repellency, is reported at each of the respective time points in the figures and tables mentioned below. The percentage spatial repellency is the examination of the distribution of mosquitoes and is calculated using the following equation: […]

Experiment [2] shares this test system. In words: Long-term spatial repellency, static air repellency chamber, filter papers air-dried 5 hours. The experiment is classed as in vivo. The conditions noted are these: for pest or weed control at 0.5 %: Culex pipiens. The protocol: as §1, with “were” for “emerged”, “post-emergent.” for “previously.”
Repellency bioassays were performed using a static air repellency chamber, which has been described in various publications by the Pesticide Toxicology Laboratory at Iowa State University of Science and Technology, Ames, Iowa Briefly, a 9-cm×60-cm glass tube was used to monitor the distribution of mosquitoes at 15 min, 30 min, 60 min, 90 min, 120 min, and 150 min after introducing mosquitoes into the static air repellency chamber. Treated filter papers were treated with 1 mL of 0.5% solution in acetone of the terpenoid analogs created in the lab and were exposed to ambient air for 5 hours before they were introduced into the spatial chamber for testing. This is a slight modification of the method described in Example 2, so as to evaluate the residual repellent character of these compounds on a treated surface after 5 hours. One end of the spatial chamber contained a treated filter paper, whereas the other (untreated) end of the spatial chamber was not treated with compound. Controls contained filter papers treated with acetone, the solvent used to make the 0.5% solutions. Each end of the repellency chamber was secured with a 100-mm Petri dish using celluloid tape. After securing the petri dishes with corresponding treated or untreated filter papers to the spatial chamber, mosquitoes were anesthetized with carbon dioxide, and approximately 20 female mosquitoes were placed into each repellency chamber for one replicate. The opening of the spatial repellency chamber was secured with celluloid tape to prevent their escape. Chambers were oriented in opposite directions from the previous replicate to account for any directional effect. Four replicates were performed for data analysis for both the control and treatment groups.
Data for spatial repellency, the percentage repellency, is reported at each of the respective time points in the figures and tables mentioned below in this disclosure. The percentage spatial repellency is the examination of the distribution of mosquitoes and is calculated using the following equation: […]

Setting [3] is: 0.25 h, filter paper, 1 mL of 0.5% solution in acetone, air-dried 15 min, 15 min after introduction, read-out: Short-term Percentage repellency 15 min.
[4] abbreviates: 1.5 h, filter paper, 1 mL of 0.5% solution in acetone, air-dried 15 min, 90 min, read-out: Short-term Percentage repellency 90 min.
The mark [5] stands for this setting: 2.5 h, filter paper, 1 mL of 0.5% solution in acetone, air-dried 15 min, 150 min, read-out: Short-term Percentage repellency 150 min.
Where [6] appears, read: 0.25 h, 1 mL of 0.5% solution in acetone, air-dried 5 hours, 15 min, read-out: Long-term Percentage repellency 15 min.
[7] abbreviates: 1.5 h, 1 mL of 0.5% solution in acetone, air-dried 5 hours, 90 min, read-out: Long-term Percentage repellency 90 min.
[8] abbreviates: 2.5 h, 1 mL of 0.5% solution in acetone, air-dried 5 hours, 150 min, read-out: Long-term Percentage repellency 150 min.

These results are taken from patent publication US11485701B2, “Insect repellent compounds and compositions, and methods thereof” (Iowa State University Research Foundation, Inc., priority 2016, dated 2022).

Regarding `C=CC(C)(C)OC(=O)CC(C)CCC=C(C)C` (stereo not drawn) [Compound 2170, tert-prenyl citronellate], the pest or weed control at 0.5 % is 80% in experiment [1] (setting [3]); 92.5% in experiment [1] (setting [4]); 82.5% in experiment [1] (setting [5]); 2.5% in experiment [2] (setting [6]); 7.5% in experiment [2] (setting [7]); -2.5% in experiment [2] (setting [8]).

As for `C#CCOC(=O)CC(C)CCC=C(C)C` (stereo not drawn) [Compound 1060D, propargyl citronellate], the pest or weed control at 0.5 % in experiment [1] (setting [3]) amounted to 60%; in experiment [1] (setting [4]), 72.5%; in experiment [1] (setting [5]), 70%; in experiment [2] (setting [6]), 15%; in experiment [2] (setting [7]), 62.5%; in experiment [2] (setting [8]), 77.5%.

Turning to `CC(C)=CCC/C(C)=C/COC(=O)C1CC1` [Compound 2023A, geranyl cyclopropanecarboxylate], the pest or weed control at 0.5 % turned out to be 45% in experiment [1] (setting [3]); 42.5% in experiment [1] (setting [4]); 45% in experiment [1] (setting [5]); 45% in experiment [2] (setting [6]); 42.5% in experiment [2] (setting [7]); 45% in experiment [2] (setting [8]). Also, the “Long-term repellency, in words” value in experiment [2] (0.5% solution, air-dried 5 hours) was “much greater than DEET”. The “Long-term percentage repellency 60 min” value in experiment [2] (0.5% solution, air-dried 5 hours, 60 minutes) is listed as 47.5%.

With `Cc1ccc(C(C)C)c(OC(=O)C(C)(C)F)c1` [Compound 1121A, thymyl 2-fluoroisobutyrate], the pest or weed control at 0.5 % stood at 77.5% in experiment [1] (setting [3]); 97.5% in experiment [1] (setting [4]); 97.5% in experiment [1] (setting [5]); 22.5% in experiment [2] (setting [6]); 50% in experiment [2] (setting [7]); 65% in experiment [2] (setting [8]).

With `CC(C)=CCCC(C)CCOC(=O)c1ccco1` (stereo not drawn) [Compound 2186, citronellyl 2-furoate], in experiment [1] (filter paper treated with 0.1%, FIG. 6), the “Short-term repellency at low concentration, in words” value is reported as “significant levels of repellency”. Also, the pest or weed control at 0.5 % in experiment [2] (setting [6]) was 25%; in experiment [2] (setting [7]) it was 42.5%; in experiment [2] (setting [8]), 40%.

`CC(C)=CCCC(C)CCOC(=O)C1CC(=O)C1` (stereo not drawn) [Compound 3067, citronellyl 3-oxocyclobutanecarboxylate]: the pest or weed control at 0.5 % in experiment [1] (setting [3]) was 47.5%; in experiment [1] (setting [4]), 60%; in experiment [1] (setting [5]), 62.5%; in experiment [2] (setting [6]), 12.5%; in experiment [2] (setting [7]), 0%; in experiment [2] (setting [8]) it was 25%.

Take `CC(C)=CCC/C(C)=C\COC(=O)C1CC1` [Compound 2023B, neryl cyclopropanecarboxylate]: the pest or weed control at 0.5 % in experiment [1] (setting [3]) stood at 10%; in experiment [1] (setting [4]) it was 52.5%; in experiment [1] (setting [5]) it was 60%; in experiment [2] (setting [6]) it was 10%; in experiment [2] (setting [7]), 52.5%; in experiment [2] (setting [8]), 60%.

On to `CC(C)=CCCC(C)CCO` (stereo not drawn) [citronellol, reference compound], for which the pest or weed control at 0.5 % in experiment [1] (setting [3]) turned out to be 32.5%; in experiment [1] (setting [4]) it was 80%; in experiment [1] (setting [5]), 87.5%; in experiment [2] (setting [6]) it was 30%; in experiment [2] (setting [7]), 25%; in experiment [2] (setting [8]), 25%.

In the case of `CC(C)=CCCC(C)CCOC(=O)C(F)F` (stereo not drawn) [Compound 2192, citronellyl difluoroacetate], the pest or weed control at 0.5 % in experiment [1] (0.25 h, read-out: Short-term Percentage repellency 15 min) turned out to be 42.5%; in experiment [1] (1.5 h, read-out: Short-term Percentage repellency 90 min), 95%; in experiment [1] (2.5 h, read-out: Short-term Percentage repellency 150 min) it was 95%; in experiment [2] (0.25 h, read-out: Long-term Percentage repellency 15 min), 50%; in experiment [2] (1.5 h, read-out: Long-term Percentage repellency 90 min) it was 72.5%; in experiment [2] (2.5 h, read-out: Long-term Percentage repellency 150 min) it was 65%.

As to `CC(C)=CCCC(C)CCOC(=O)C(C)C` (stereo not drawn) [Compound 2204, citronellyl isobutyrate], the pest or weed control at 0.5 % is 25% in experiment [1] (setting [3]); 80% in experiment [1] (setting [4]); 90% in experiment [1] (setting [5]); -5% in experiment [2] (setting [6]); 7.5% in experiment [2] (setting [7]); 10% in experiment [2] (setting [8]).

For the compound `CCN(CC)C(=O)c1cccc(C)c1` [N,N-diethyl-meta-toluamide (DEET), N,N-diethyl-meta-toluamide, reference compound], the pest or weed control at 0.5 % stood at 20% in experiment [1] (setting [3]); 50% in experiment [1] (setting [4]); 56.7% in experiment [1] (setting [5]); 32.5% in experiment [2] (setting [6]); 32.5% in experiment [2] (setting [7]); 45% in experiment [2] (setting [8]).
